Measured values reported in ChEMBL document CHEMBL5390220, “SAR study of niclosamide derivatives for neuroprotective function in SH-SY5Y neuroblastoma” (Bioorg Med Chem Lett, 2023).
The source made the active and inactive calls. No cut-off for these calls is given here.

Legend:
Format in all cases: functional, cell-based
SH-SY5Y [1] = assay: Neuroprotective activity against human SH-SY5Y cells assessed as reduction in cyclin D expression incubated for 24 hrs in presence of MG132 by Western blot analysis
SH-SY5Y [2] = assay: Neuroprotective activity against human SH-SY5Y cells assessed as inhibition of p53 expression incubated for 24 hrs in presence of MG132 by Western blot analysis
SH-SY5Y [3] = assay: Neuroprotective activity against human SH-SY5Y cells assessed as inhibition of CHOP expression incubated for 24 hrs in presence of MG132 by Western blot analysis
SH-SY5Y [4] = assay: Neuroprotective activity against human SH-SY5Y cells assessed as reduction in cleaved PARP level incubated for 24 hrs in presence of MG132 by Western blot analysis
SH-SY5Y [5] = assay: Neuroprotective activity against human SH-SY5Y cells assessed as reduction in protein ubiquitination level incubated for 24 hrs in presence of MG132 by Western blot analysis

Compound | Activity (SH-SY5Y [1]) | inhibition (SH-SY5Y [2]) | inhibition (SH-SY5Y [3]) | Activity (SH-SY5Y [4]) | Activity (SH-SY5Y [5])
O=C(Nc1ccc([N+](=O)[O-])cc1Cl)c1ccccc1O | Active | Active | Active |  | 
O=C(Nc1ccc([N+](=O)[O-])cc1Cl)c1cc(Cl)ccc1O |  | Active | Active | Active | Active
CC(=O)Nc1ccc(NC(=O)c2cc(Cl)ccc2OC(C)=O)c(Cl)c1 | inactive | inactive | inactive | inactive | inactive
[N-]=[N+]=Nc1ccc(NC(=O)c2cc(Cl)ccc2O)c(Cl)c1 | Active | Active | Active | Active | Active
Nc1ccc(NC(=O)c2ccccc2O)cc1 |  | inactive |  |  | 
O=C(Nc1ccc([N+](=O)[O-])cc1)c1cc(Cl)ccc1O | Active | Active | Active | Active | Active
O=C(Nc1ccc([N+](=O)[O-])cc1Cl)c1ccccc1 |  |  |  |  | inactive
O=C(Nc1ccccc1)c1cc(Cl)ccc1O |  | inactive |  |  | 
CC(=O)Oc1ccc(Cl)cc1C(=O)Nc1ccc([N+](=O)[O-])cc1Cl | Active | Active | Active |  | Active
O=C(Nc1ccc(C(F)(F)F)cc1Cl)c1cc(Cl)ccc1O | Active | Active | Active | Active | Active
